Source: patent publication US9394299B2, “Rilyazine derivatives and compositions for the treatment of cancer” (Warner Babcock Institute for Green Chemistry, LLC, priority 2013, dated 2016)
“Also recorded” adds a separate entry of the source. Like-named read-outs stand apart in the source and are kept apart here.

System: 60 cell lines (human tumor cell lines of the cancer screening panel)
Test: NCI 60 cell line screening, single point dosing at 10 μM (SRB)
Type: cell-based
Conditions: for GI50: Homo sapiens, read-out: GI50 (NCI Results, single point, 10 μM); for Delta of Growth Percent across all cell lines / Mean Growth Percent across all cell lines: single dose 10^−5 M
Procedure: The screening is a two-stage process, beginning with the evaluation of all compounds against 60 cell lines at a single dose of 10^−5 M.
The human tumor cell lines of the cancer screening panel are grown in RPMI 1640 medium containing 5% fetal bovine serum and 2 mM L-glutamine. Cells are inoculated into 96 well microtiter plates in 100 μL at plating densities ranging from 5,000 to 40,000 cells/well depending on the doubling time of individual cell lines. After cell inoculation, the microtiter plates are incubated at 37° C., 5% CO2, 95% air and 100% relative humidity for 24 h prior to addition of experimental drugs.
After 24 h, two plates of each cell line are fixed in situ with TCA, to represent a measurement of the cell population for each cell line at the time of drug addition Time Zero (Tz). Experimental drugs are solubilized in dimethyl sulfoxide:glycerol 9:1 at 400-fold the desired final maximum test concentration and stored frozen at −70° C. prior to use. At the time of drug addition, an aliquot of frozen concentrate is thawed and diluted to twice the desired final maximum test concentration with complete medium containing 50 μg/ml gentamicin. Additional four, 10-fold or ½ log serial dilutions are made to provide a total of five drug concentrations plus control. Aliquots of 100 μl of these different drug dilutions are added to the appropriate microtiter wells already containing 100 μl of medium, resulting in the required final drug concentrations.
Positive control is prepared by adding the known anti-tumor agent adriamycin, NSC 123127, prepared and stored the same as the compounds for testing.
Following drug addition, the plates are incubated for an additional 48 h at 37° C., 5% CO2, 95% air, and 100% relative humidity. For adherent cells, the assay is terminated by the addition of cold TCA. Cells are fixed in situ by the gentle addition of 50 μl of cold 50% (w/v) TCA (final concentration, 10% TCA) and incubated for 60 minutes at 4° C. The supernatant is discarded, and the plates are washed five times with tap water and air dried. Sulforhodamine B (SRB) solution (100 μl) at 0.4% (w/v) in 1% acetic acid is added to each well, and plates are incubated for 10 minutes at room temperature. After staining, unbound dye is removed by washing five times with 1% acetic acid and the plates are air dried. Bound stain is subsequently solubilized with 10 mM trizma base, and the absorbance is read on an automated plate reader at a wavelength of 515 nm. For suspension cells, the methodology is the same except that the assay is terminated by fixing settled cells at the bottom of the wells by gently adding 50 μl of 80% TCA (final concentration, 16% TCA).
For the 1-dose 60 cell testing, the Growth Percent is calculated for each cell line/drug combination from the absorbance measurement for the no-drug control (C), the absorbance at time zero (Tz) and the absorbance measurement after incubation of the cells in the presence of drug (Ti): Growth Percent=[(Ti−Tz)/(C−Tz)]×100 for cell line/drug combinations for which Ti≧Tz. Growth Percent=[(Ti−Tz)/Tz]×100 for cell line/drug combinations for which Ti<Tz.
Calculation of the Growth Percent by these equations allows detection of both growth inhibition (Growth Percent values between 0 and 100) and lethality (Growth Percent values less than 0). For example, a Growth Percent value of 100 means no growth inhibition. A Growth Percent value of 40 would mean 60% growth inhibition. A Growth Percent value of 0 means no net growth over the course of the experiment, or “cytostatic”, no change by growth or cell death. A Growth Percent value of −40 would mean 40% lethality. A Growth Percent value of −100 means all cells are dead.
For 1-dose 60 cell testing, the Mean Growth Percent, Delta and Range across all 60 cell lines are also calculated. The Deviation of each cell line/drug combination from the Mean is also calculated and plotted: Deviation=Mean Growth Percent−Growth Percent […]

[1] = single point 10 μM, 60 cell lines

Row | Compound | GI50 (60 cell) | Delta of Growth Percent across all cell lines (60 cell lines) | Mean Growth Percent across all cell lines (60 cell lines) | anti-proliferative effect / growth inhibition (in words) [1] | GI50 [1]
1 | O=c1c2cccnc2c(-c2ccccn2)nn1C1CCCCC1 [RL-1, 6-cyclohexyl-8-(pyridin-2-yl)pyrido[2,3-d]pyridazin-5(6H)-one] | > 10 µM | 11.75 | 104.31% | little to no effect on cell growth; also recorded: little to no appreciable anti-proliferative effects | 
2 | S=c1c2cccnc2c(-c2ccccn2)nn1C1CCCCC1 [RL-2, 6-cyclohexyl-8-(pyridin-2-yl)pyrido[2,3-d]pyridazine-5(6H)-thione] |  | 30.65 | 99.96% | little to no effect on cell growth; also recorded: little to no appreciable anti-proliferative effects | > 10 µM
3 | O=c1c2ncccc2c(-c2ccccn2)nn1C1CCCCC1 [RL-3, 7-Cyclohexyl-5-(pyridin-2-yl)pyrido[2,3-d]pyridazin-8(7H)-one] | > 10 µM | 24.63 | 101.11% | little to no effect on cell growth; also recorded: little to no appreciable anti-proliferative effects | 
